Assay [1] addresses T1, glutathione-S-transferase (GST) tagged LXRbeta LBD (ligand binding domain) (Homo sapiens, UniProt P55055).
T1 construct: purchased Invitrogen pv4658.pps
T1 sequence (P55055 222-460 limits assumed): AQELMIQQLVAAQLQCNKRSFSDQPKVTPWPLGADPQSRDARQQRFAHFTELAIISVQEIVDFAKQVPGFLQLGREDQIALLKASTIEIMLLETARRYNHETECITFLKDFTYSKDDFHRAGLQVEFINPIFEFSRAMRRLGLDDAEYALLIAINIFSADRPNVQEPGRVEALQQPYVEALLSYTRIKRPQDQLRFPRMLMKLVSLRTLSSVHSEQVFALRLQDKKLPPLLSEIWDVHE
The assay can be described thus: LanthaScreen TR-FRET Liver X Receptor Coactivator Assay, co-activator recruitment to LXRbeta LBD. Format: biochemical. The following applies: for Emax: read-out: LXR beta Activity @ max dose (%); for EC50: potency (Inflection Point, IP), co-activator recruitment to LXRbeta LBD, in relation to T0901317, read-out: LXR beta IP. The method, boiled down:
(§1)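 LXRα- or LXRβ-LBD protein was added to test compounds, then fluorescein-labelled coactivator peptide plus Tb-anti-GST antibody; after room-temperature incubation, TR-FRET was read. Inflection point (IP) and Emax were expressed relative to the dual agonist reference T0901317.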
A general note: In TR-FRET formats the signal depends on donor and acceptor labels being close together.

Assay [2] addresses T2, glutathione-S-transferase (GST) tagged LXRalpha LBD (ligand binding domain) (Homo sapiens, UniProt Q13133).
T2 construct: purchased Invitrogen pv4655
T2 sequence (Q13133 209-447 limits assumed): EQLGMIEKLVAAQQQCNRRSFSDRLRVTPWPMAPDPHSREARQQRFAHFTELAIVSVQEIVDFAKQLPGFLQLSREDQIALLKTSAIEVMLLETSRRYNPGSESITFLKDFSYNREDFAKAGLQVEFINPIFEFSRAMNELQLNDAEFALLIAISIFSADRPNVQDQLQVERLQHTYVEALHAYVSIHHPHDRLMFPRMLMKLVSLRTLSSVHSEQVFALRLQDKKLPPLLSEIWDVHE
The experiment in a line: LanthaScreen TR-FRET Liver X Receptor Coactivator Assay, co-activator recruitment to LXRalpha LBD. To be noted: for Emax: read-out: LXR alpha Activity @ max dose (%); for LXR alpha IP (nM) / EC50: potency (Inflection Point, IP), co-activator recruitment to LXRalpha LBD, in relation to T0901317; for EC50: read-out: LXR alpha IP. Format: biochemical. In short, it runs like this:
as §1

The mark [3] stands for this setting: efficacy at max dose, in relation to reference dual agonist T0901317.

Regarding `CN(C)C(=O)c1ccc(N2CCC(CC3CCN(C(=O)[C@](O)(c4cc(Cl)cc(Cl)c4)C(F)F)CC3)CC2)cc1Cl` [Example 2-121, 2-chloro-4-[4-({1-[(2R)-2-(3,5-dichloro-phenyl)-3,3-difluoro-2-hydroxy-propanoyl]piperidin-4-yl}methyl)piperidin-1-yl]-N,N-dimethyl-benzamide], the figures for the Emax in assay [1] (setting [3]) and in assay [2] (setting [3]) were 51% and 0%, respectively. Also, the EC50 in assay [1] was determined as 7 nM. For the same molecule, the “LXR alpha IP (nM)” value in assay [2] is “NO IP”.
Consider `CN(C)C(=O)c1ccc(N2CCC(CC3CCN(C(=O)C(O)(c4cccc(F)c4)C(F)F)CC3)CC2)cc1Cl` (centres unmarked) [Example 2-122, 2-chloro-4-[4-({1-[3,3-difluoro-2-(3-fluorophenyl)-2-hydroxy-propanoyl]piperidin-4-yl}methyl)piperidin-1-yl]-N,N-dimethyl-benzamide], for which the Emax came to 69% in assay [1] (setting [3]) and 29% in assay [2] (setting [3]). The EC50 in assay [1] turned out to be 27 nM; in assay [2] it was 543 nM.
Consider `CN(C)C(=O)c1ccc(N2CCC(CC3CCN(C(=O)C(N)(c4ccccc4)C(F)(F)C(F)(F)F)CC3)CC2)cc1Cl` (centres unmarked) [Example 2-123, 4-(4-{[1-(2-amino-3,3,4,4,4-pentafluoro-2-phenylbutanoyl)piperidin-4-yl]methyl}piperidin-1-yl)-2-chloro-N,N-dimethyl-benzamide], for which the Emax in assay [1] (setting [3]) amounted to 106%; in assay [2] (setting [3]) it was 21%. In addition, the EC50 in assay [1] is 335 nM; in assay [2], 1470 nM.
As to `COc1cccc([C@@](O)(C(=O)N2CCC(CC3CCN(c4ccc(C(=O)N(C)C)cc4)CC3)CC2)C(F)(F)F)c1` [Example 2-124, N,N-dimethyl-4-[4-({1-[(2R)-3,3,3-trifluoro-2-hydroxy-2-(3-methoxy-phenyl)propanoyl]piperidin-4-yl}methyl)piperidin-1-yl]benzamide], the Emax in assay [1] (setting [3]) was 55%; in assay [2] (setting [3]), 4%. Moreover, the EC50 in assay [1] is 43 nM. Further, in assay [2], the “LXR alpha IP (nM)” value is reported as “NO IP”.
For the molecule `CC(C)c1cccc([C@@](O)(C(=O)N2CCC(CC3CCN(c4ccc(C(=O)N(C)C)cc4)CC3)CC2)C(F)(F)F)c1` [Example 2-125, N,N-dimethyl-4-{4-[(1-{(2R)-3,3,3-trifluoro-2-hydroxy-2-[3-(1-methyl-ethyl)phenyl]propanoyl}piperidin-4-yl)methyl]piperidin-1-yl}benzamide], the figures for the Emax in assay [1] (setting [3]) and in assay [2] (setting [3]) were 64% and 15%, respectively. Further, the EC50 in assay [1] worked out at 52 nM; in assay [2] it was 459 nM.
On the same counts, the results for `CN(C)C(=O)c1ccc(N2CCC(CC3CCN(C(=O)C(O)(c4cc(F)cc(F)c4)C(F)(F)F)CC3)CC2)cc1` (centres unmarked) [Example 2-126, 4-[4-({1-[2-(3,5-difluoro-phenyl)-3,3,3-trifluoro-2-hydroxy-propanoyl]piperidin-4-yl}methyl)piperidin-1-yl]-N,N-dimethyl-benzamide] are 118%, 33%, 38 nM and 126 nM.
For the molecule `CN(C)C(=O)c1ccc(N2CCC(CC3CCN(C(=O)[C@@](O)(c4ccccc4)C(F)(F)F)CC3)CC2)cc1` [Example 2-127, N,N-dimethyl-4-[4-({1-[(2S)-3,3,3-trifluoro-2-hydroxy-2-phenyl-propanoyl]piperidin-4-yl}methyl)piperidin-1-yl]benzamide], the results for the Emax in assay [1] (setting [3]) and in assay [2] (setting [3]) were 68% and 9%, respectively. In addition, the EC50 in assay [1] amounted to 877 nM. Moreover, the “LXR alpha IP (nM)” value in assay [2] was “NO IP”.
`CN(C)C(=O)c1ccc(N2CCC(CC3CCN(C(=O)[C@](O)(c4ccccc4)C(F)(F)F)CC3)CC2)cc1` [Example 2-128, N,N-dimethyl-4-[4-({1-[(2R)-3,3,3-trifluoro-2-hydroxy-2-phenyl-propanoyl]piperidin-4-yl}methyl)piperidin-1-yl]benzamide]: the values for the Emax in assay [1] (setting [3]) and in assay [2] (setting [3]) were 73% and 34%, respectively. Further, the EC50 in assay [1] turned out to be 58 nM; in assay [2], 1040 nM.
Take `Cc1cccc([C@@](O)(C(=O)N2CCC(CC3CCN(c4ccc(C(=O)N(C)C)cc4)CC3)CC2)C(F)(F)F)c1` [Example 2-129, N,N-dimethyl-4-[4-({1-[(2R)-3,3,3-trifluoro-2-hydroxy-2-(3-methylphenyl)propanoyl]piperidin-4-yl}methyl)piperidin-1-yl]benzamide]: the Emax in assay [1] (setting [3]) came out at 51%; in assay [2] (setting [3]) it was 5%. The EC50 in assay [1] worked out at 51 nM. Moreover, the “LXR alpha IP (nM)” value in assay [2] is listed as “NO IP”.
The like results for `COc1cccc([C@@](O)(C(=O)N2CCC(CC3CCN(c4ccc(C(=O)N(C)C)cc4)CC3)CC2)C(F)F)c1` [Example 2-130, 4-[4-({1-[(2R)-3,3-difluoro-2-hydroxy-2-(3-methoxy-phenyl)propanoyl]piperidin-4-yl}methyl)piperidin-1-yl]-N,N-dimethyl-benzamide] were, in that order, 31%, 0%, 191 nM and “NO IP”.
Regarding `CN(C)C(=O)c1ccc(N2CCC(CC3CCN(C(=O)[C@](O)(c4cccc(Cl)c4)C(F)(F)F)CC3)CC2)cc1` [Example 2-131, 4-[4-({1-[(2R)-2-(3-chloro-phenyl)-3,3,3-trifluoro-2-hydroxy-propanoyl]piperidin-4-yl}methyl)piperidin-1-yl]-N,N-dimethyl-benzamide], the Emax in assay [1] (setting [3]) was found to be 59%; in assay [2] (setting [3]), 10%. The EC50 in assay [1] worked out at 53 nM. Further, in assay [2], the “LXR alpha IP (nM)” value is recorded as “NO IP”.
Take `COc1cccc([C@@](O)(C(=O)N2CCC(CC3CCN(c4ccc(C(=O)N(C)C)cc4)CC3)CC2)C(F)(F)F)c1` [Example 2-132, N,N-dimethyl-4-[4-({1-[(2R)-3,3,3-trifluoro-2-hydroxy-2-(3-methoxyphenyl)propanoyl]piperidin-4-yl}methyl)piperidin-1-yl]benzamide]: the “LXR beta Activity @ max dose (%)” value in assay [1] (setting [3]) is 49%. Besides, in assay [1], the EC50 was found to be 51 nM. Moreover, in assay [2] (setting [3]), the “LXR alpha Activity @ max dose (%)” value is on record as 7%. Moreover, the “LXR alpha IP (nM)” value in assay [2] is “NO IP”.
`CN(C)C(=O)c1ccc(N2CCC(CC3CCN(C(=O)[C@](O)(c4cc(Cl)cc(Cl)c4)C(F)(F)F)CC3)CC2)cc1` [Example 2-133, 4-[4-({1-[(2R)-2-(3,5-dichloro-phenyl)-3,3,3-trifluoro-2-hydroxy-propanoyl]piperidin-4-yl}methyl)piperidin-1-yl]-N,N-dimethyl-benzamide]: the Emax in assay [1] (setting [3]) is 54%; in assay [2] (setting [3]), 6%. Besides, in assay [1], the EC50 stood at 36 nM. Besides, in assay [2], the “LXR alpha IP (nM)” value is given as “NO IP”.
`CN(C)C(=O)c1ccc(N2CCC(CC3CCN(C(=O)[C@](O)(c4cccc(OC(F)F)c4)C(F)(F)F)CC3)CC2)cc1` [Example 2-134, 4-{4-[(1-{(2R)-2-[3-(difluoro-methoxy)phenyl]-3,3,3-trifluoro-2-hydroxy-propanoyl}piperidin-4-yl)methyl]piperidin-1-yl}-N,N-dimethyl-benzamide]: the results for the Emax in assay [1] (setting [3]) and in assay [2] (setting [3]) were 67% and 18%, respectively. Moreover, the EC50 amounted to 120 nM in assay [1] and 1980 nM in assay [2].
In the case of `CC(C)Oc1cccc([C@@](O)(C(=O)N2CCC(CC3CCN(c4ccc(C(=O)N(C)C)cc4)CC3)CC2)C(F)(F)F)c1` [Example 2-135, N,N-dimethyl-4-{4-[(1-{(2R)-3,3,3-trifluoro-2-hydroxy-2-[3-(1-methylethoxy)phenyl]propanoyl}piperidin-4-yl)methyl]piperidin-1-yl}benzamide], the results for the Emax in assay [1] (setting [3]) and in assay [2] (setting [3]) were 63% and 3%, respectively. Moreover, in assay [1], the EC50 is 44 nM. Besides, the “LXR alpha IP (nM)” value in assay [2] was “NO IP”.
Consider `CN(C)C(=O)c1ccc(N2CCC(CC3CCN(C(=O)[C@](O)(c4cccc(C(F)(F)F)c4)C(F)(F)F)CC3)CC2)cc1` [Example 2-136, N,N-dimethyl-4-{4-[(1-{(2R)-3,3,3-trifluoro-2-hydroxy-2-[3-(trifluoromethyl)phenyl]propanoyl}piperidin-4-yl)methyl]piperidin-1-yl}benzamide], for which the figures for the Emax in assay [1] (setting [3]) and in assay [2] (setting [3]) were 64% and 20%, respectively. For the same molecule, the EC50 in assay [1] amounted to 69 nM; in assay [2] it was 714 nM.
Take `COc1cc(F)cc([C@@](O)(C(=O)N2CCC(CC3CCN(c4ccc(C(=O)N(C)C)cc4)CC3)CC2)C(F)(F)F)c1` [Example 2-137, N,N-dimethyl-4-[4-({1-[(2R)-3,3,3-trifluoro-2-(3-fluoro-5-methoxyphenyl)-2-hydroxy-propanoyl]piperidin-4-yl}methyl)piperidin-1-yl]benzamide]: the Emax in assay [1] (setting [3]) worked out at 78%; in assay [2] (setting [3]), 15%. The EC50 in assay [1] amounted to 30 nM. In assay [2], the “LXR alpha IP (nM)” value is listed as “NO IP”.

Source of the values: patent US10752587B2, “Homobispiperidinyl derivatives as liver X receptor beta agonists, compositions and their use” (Merck Sharp & Dohme Corp., priority 2015, dated 2020).
